Test results from patent US9040712B2, “Thiadiazole analogs thereof and methods for treating SMN-deficiency-related-conditions” (NOVARTIS AG, priority 2013, dated 2015).
Structures can show the parent of a compound that is named as a salt.

System: SMN protein
Test: cellular SMN ELISA (SMN protein elevation)
Type: cell-based
Details: myoblast cell line derived from SMNdelta7 mouse model; 24 hours compound treatment; concentration range 100 pM-10 uM
Method: A cellular SMN ELISA was used to measure the effects of low molecular weight compounds on SMN protein elevation. Cells from a myoblast cell line derived from the SMNdelta7 mouse model (kind gift from Steve Burden, NYU) were seeded into a 384-well plate at a density of 3000 cells/well and treated with compounds for 24 hours. ELISA capture plates were prepared by coating 384-well plates (Immulon 4HBX) with 0.5 ug/mL of anti-SMN mAb (BD Science, Catalog number 610647) at 4° C. overnight. The plates were washed 5 times with 110 uL of PBS-Tween (0.05% Tween-20, PBST), blocked with 100 uL of 1% BSA in PBST for 2 hours and washed (5 times) with 100 uL of PBST. After 24 hours of compound treatment cells were lysed in a modified RIPA-buffer, on ice for 1 hour. 20 uL of lysate and 20 uL of 1% BSA were then added to the ELISA capture plates and incubated at 4° C. overnight. Plates were washed (5 times) with PBST and then incubated with 1:100 dilution of primary rabbit anti-SMN polyclonal antibody (Santa cruz, Catalog number SC-15320) at room temperature for 1 hour and subsequently washed (5 times) with 110 uL of PBST. This was followed by addition of 1:100 Goat anti-Rabbit IgG-HRP linked (Cell Signaling, Catalog number 7074) secondary antibody for 1 hour. Plates were then washed with PBST and incubated with 40 uL TMB substrate (Cell Signaling, Catalog number 7004L) at room temperature for 1-10 minutes with shaking. The reaction was stopped by addition of 40 uL of stop solution (Cell signaling, Catalog number 7002L) and absorption was measured at 450 nm. Data was reported as fold activation over DMSO control and EC50. ELISA assay condition: compound concentration range 100 pM-10 uM.

| SMILES | SMN Activity Fold (fold activation over DMSO control) [fold] | EC50 [µM] |
| --- | --- | --- |
| CN(c1nnc(-c2c(O)cc(-c3cn[nH]c3)c(F)c2F)s1)C1CC(C)(C)NC(C)(C)C1 [Example 91, 3,4-difluoro-2-(5-(methyl(2,2,6,6-tetramethylpiperidin-4-yl)amino)-1,3,4-thiadiazol-2-yl)-5-(1H-pyrazol-4-yl)phenol] | 2.67 | – |
| CN(c1nnc(-c2cc3cccnc3cc2O)s1)C1CC(C)(C)NC(C)(C)C1 [Example 32, 6-(5-(Methyl(2,2,6,6-tetramethylpiperidin-4-yl)amino)-1,3,4-thiadiazol-2-yl)quinolin-7-ol] | 2.48 | 0.256 |
| CN(c1nnc(-c2ccc(-c3cn[nH]c3)cc2Cl)s1)C1CC(C)(C)NC(C)(C)C1 [Example 40, 5-(2-chloro-4-(1H-pyrazol-4-yl)phenyl)-N-methyl-N-(2,2,6,6-tetramethylpiperidin-4-yl)-1,3,4-thiadiazol-2-amine] | 2.55 | 0.034 |
| CN(c1nnc(-c2ccc(-c3ccc(=O)[nH]c3)cc2Cl)s1)C1CC(C)(C)NC(C)(C)C1 [Example 88, 5-(3-chloro-4-(5-(methyl(2,2,6,6-tetramethylpiperidin-4-yl)amino)-1,3,4-thiadiazol-2-yl)phenyl)pyridin-2(1H)-one] | 2.22 | 0.16 |
| CN1C[C@@H]2CN(c3nnc(-c4ccc(-c5cn[nH]c5)cc4F)s3)C[C@@H]2C1 [Example 84, 2-(2-fluoro-4-(1H-pyrazol-4-yl)phenyl)-5-((3aR,6aS)-5-methylhexahydropyrrolo[3,4-c]pyrrol-2(1H)-yl)-1,3,4-thiadiazole] | 2.11 | 0.193 |
| CNc1ccn(-c2ccc(-c3nnc(N(C)C4CC(C)(C)NC(C)(C)C4)s3)c(O)c2)n1 [Example 89, 2-(5-(methyl(2,2,6,6-tetramethylpiperidin-4-yl)amino)-1,3,4-thiadiazol-2-yl)-5-(3-(methylamino)-1H-pyrazol-1-yl)phenol] | 2.85 | 0.106 |
| COc1cc(-n2cccn2)ccc1-c1nnc(NC2CC(C)(C)N(C)C(C)(C)C2)s1 [Example 5, 5-(2-Methoxy-4-(1H-pyrazol-1-yl)phenyl)-N-(1,2,2,6,6-pentamethylpiperidin-4-yl)-1,3,4-thiadiazol-2-amine] | 2.88 | 0.087 |
| CN(c1nnc(-c2cc3c(cc2O)C(=O)CC3)s1)C1CC(C)(C)NC(C)(C)C1 [Example 92, 6-hydroxy-5-(5-(methyl(2,2,6,6-tetramethylpiperidin-4-yl)amino)-1,3,4-thiadiazol-2-yl)-2,3-dihydro-1H-inden-1-one] | 2.50 | 0.091 |
| CN(c1nnc(-c2ccc(-n3ccnc3)cc2F)s1)C1CC(C)(C)NC(C)(C)C1 [Example 72, 5-(2-fluoro-4-(1H-imidazol-1-yl)phenyl)-N-methyl-N-(2,2,6,6-tetramethylpiperidin-4-yl)-1,3,4-thiadiazol-2-amine] | 2.50 | 0.091 |
| Cc1nc(C)c(-c2cc(F)c(-c3nnc(N(C)C4CC(C)(C)NC(C)(C)C4)s3)cc2F)s1 [Example 58, 5-(4-(2,4-dimethylthiazol-5-yl)-2,5-difluorophenyl)-N-methyl-N-(2,2,6,6-tetramethylpiperidin-4-yl)-1,3,4-thiadiazol-2-amine] | 2.41 | 0.386 |
| CN(c1nnc(-c2ccc3cc(O)ccc3c2)s1)C1CC(C)(C)NC(C)(C)C1 [Example 2, 6-(5-(Methyl(2,2,6,6-tetramethylpiperidin-4-yl)amino)-1,3,4-thiadiazol-2-yl)naphthalen-2-ol] | 2.66 | 0.436 |
| Cc1nc(C)c(-c2ccc(-c3nnc(N(C)C4CC(C)(C)NC(C)(C)C4)s3)c(F)c2F)s1 [Example 59, 5-(4-(2,4-dimethylthiazol-5-yl)-2,3-difluorophenyl)-N-methyl-N-(2,2,6,6-tetramethylpiperidin-4-yl)-1,3,4-thiadiazol-2-amine] | 2.69 | 1.5 |
| CN(c1nnc(-c2c(O)cc(-c3cn[nH]c3)cc2F)s1)C1CC(C)(C)NC(C)(C)C1 [Example 90, 3-fluoro-2-(5-(methyl(2,2,6,6-tetramethylpiperidin-4-yl)amino)-1,3,4-thiadiazol-2-yl)-5-(1H-pyrazol-4-yl)phenol] | 2.57 | 0.006 |
| CN(c1nnc(-c2cc3ccccc3[nH]c2=O)s1)C1CC(C)(C)NC(C)(C)C1 [Example 103, 3-(5-(methyl(2,2,6,6-tetramethylpiperidin-4-yl)amino)-1,3,4-thiadiazol-2-yl)quinolin-2(1H)-one] | 2.47 | 0.161 |
| COc1cc(-c2ccn(C)c(=O)c2)ccc1-c1nnc(N(C)C2CC(C)(C)NC(C)(C)C2)s1 [Example 8, 4-(3-Methoxy-4-(5-(methyl(2,2,6,6-tetramethyl-piperidin-4-yl)amino)-1,3,4-thiadiazol-2-yl)phenyl)-1-methylpyridin-2(1H)-one] | 3.20 | 0.134 |
| COc1cc(-c2ncc(C)o2)cc(O)c1-c1nnc(N(C)C2CC(C)(C)NC(C)(C)C2)s1 [Example 28, 3-Methoxy-2-(5-(methyl(2,2,6,6-tetramethylpiperidin-4-yl)amino)-1,3,4-thiadiazol-2-yl)-5-(5-methyloxazol-2-yl)phenol] | 2.70 | 0.02 |
| COc1cc2ncccc2cc1-c1nnc(N(C)C2CC(C)(C)NC(C)(C)C2)s1 [Example 31, 5-(7-Methoxyquinolin-6-yl)-N-methyl-N-(2,2,6,6-tetramethylpiperidin-4-yl)-1,3,4-thiadiazol-2-amine] | 2.43 | 0.113 |
| CN(c1nnc(-c2ccc(-c3ccc(N)nc3)cc2F)s1)C1CC(C)(C)NC(C)(C)C1 [Example 45, 5-(4-(6-aminopyridin-3-yl)-2-fluorophenyl)-N-methyl-N-(2,2,6,6-tetramethylpiperidin-4-yl)-1,3,4-thiadiazol-2-amine] | 2.26 | 0.163 |
| COc1cc(-c2ccn[nH]2)ccc1-c1nnc(N(C)C2CC(C)(C)NC(C)(C)C2)s1 [Example 73, 5-(2-methoxy-4-(1H-pyrazol-5-yl)phenyl)-N-methyl-N-(2,2,6,6-tetramethylpiperidin-4-yl)-1,3,4-thiadiazol-2-amine] | 2.73 | 0.11 |
| COc1cc(-n2cccn2)ccc1-c1nnc(C2=CCNCC2)s1 [Example 29, 2-(2-Methoxy-4-(1H-pyrazol-1-yl)phenyl)-5-(1,2,3,6-tetrahydropyridin-4-yl)-1,3,4-thiadiazole] | 2.46 | 0.879 |
| COc1cc(-c2cn[nH]c2)cc(F)c1-c1nnc(N(C)C2CC(C)(C)NC(C)(C)C2)s1 [Example 61, 5-(2-fluoro-6-methoxy-4-(1H-pyrazol-4-yl)phenyl)-N-methyl-N-(2,2,6,6-tetramethylpiperidin-4-yl)-1,3,4-thiadiazol-2-amine] | 2.36 | 0.095 |
| CN(c1nnc(-c2ccc(-n3cncn3)cc2Cl)s1)C1CC(C)(C)NC(C)(C)C1 [Example 68, 5-(2-chloro-4-(1H-1,2,4-triazol-1-yl)phenyl)-N-methyl-N-(2,2,6,6-tetramethylpiperidin-4-yl)-1,3,4-thiadiazol-2-amine] | 2.64 | 0.079 |
| Clc1cc(-c2cn[nH]c2)ccc1-c1nnc(N2C[C@H]3CNC[C@H]3C2)s1 [Example 105, 2-(2-chloro-4-(1H-pyrazol-4-yl)phenyl)-5-((3aR,6aS)-hexahydropyrrolo[3,4-c]pyrrol-2(1H)-yl)-1,3,4-thiadiazole Hydrochloride Salt] | 2.21 | 0.181 |
| CN(c1nnc(-c2ccc(-c3ccc(O)nc3)cc2O)s1)C1CC(C)(C)NC(C)(C)C1 [Example 19, 5-(3-Hydroxy-4-(5-(methyl(2,2,6,6-tetramethyl-piperidin-4-yl)amino)-1,3,4-thiadiazol-2-yl)phenyl)pyridin-2-ol] | 2.85 | 0.051 |
| CN(c1nnc(-c2ccc(C#N)cc2F)s1)C1CC(C)(C)NC(C)(C)C1 [Example 34, 3-fluoro-4-(5-(methyl(2,2,6,6-tetramethylpiperidin-4-yl)amino)-1,3,4-thiadiazol-2-yl)benzonitrile] | 2.32 | > 10 |
